Target: T1, CaMKIIδ (Homo sapiens, UniProt Q13557)
T1 construct: gene CAMK2D; recombinant CaMKIIδ (Invitrogen)
Test: in vitro kinase assay with autocamtide-2 peptide, ADP quantification
Format: biochemical

T1 sequence (Q13557 2-499): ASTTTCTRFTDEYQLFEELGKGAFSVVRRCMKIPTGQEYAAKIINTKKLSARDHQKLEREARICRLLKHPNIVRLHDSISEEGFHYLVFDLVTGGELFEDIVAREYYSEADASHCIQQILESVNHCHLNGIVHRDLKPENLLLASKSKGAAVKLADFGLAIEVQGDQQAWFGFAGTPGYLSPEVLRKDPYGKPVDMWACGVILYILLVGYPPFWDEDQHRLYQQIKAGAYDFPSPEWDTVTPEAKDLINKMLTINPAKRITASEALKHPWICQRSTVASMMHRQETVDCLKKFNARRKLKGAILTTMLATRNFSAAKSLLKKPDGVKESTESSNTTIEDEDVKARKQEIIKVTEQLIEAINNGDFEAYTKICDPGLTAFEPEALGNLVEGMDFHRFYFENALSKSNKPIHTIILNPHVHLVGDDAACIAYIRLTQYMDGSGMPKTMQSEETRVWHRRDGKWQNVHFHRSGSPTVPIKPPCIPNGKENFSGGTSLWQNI

IC50	Structure (SMILES)
6.37 µM	COc1ccc(S(=O)(=O)N(CCO)c2ccccc2CN(C)C/C=C/c2ccc(Cl)cc2)cc1 [KN93]
> 100 µM	COc1ccc(-c2cc(=O)c3c(O)cc(O[C@@H]4O[C@H](CO)[C@@H](O)[C@H](O)[C@H]4O)cc3o2)cc1 [tilianin]

From PMC7568786, “Tilianin Protects against Ischemia/Reperfusion-Induced Myocardial Injury through the Inhibition of the Ca^2+/Calmodulin-Dependent Protein Kinase II-Dependent Apoptotic and Inflammatory Signaling Pathways” (BioMed Research International, 2020)
